Experimental data taken from EP0012543A1, “Compositions containing 1,3-dioxolanes as emollients” (IMPERIAL CHEMICAL INDUSTRIES PLC, priority 1978, dated 1980).

Test system: skin
Experiment: Evaluation of emollients: test lotion rated by a panel
Assay type: in vivo, persons
Protocol: The following basic composition is prepared:
The emollient to be tested is stirred with the other ingredients of the oil phase while heating to 70°C. Meanwhile, ingredients of the water phase are stirred and heated to 72°C. The water phase is then added gradually to the stirred oil phase, and the total mixture is stirred while it cools to room temperature. The emulsion (lotion or cream) is allowed to age for 48 hours at room temperature before evaluation.
For evaluation the subject applies a small amount of the lotion to the inner arm, rubs it into the skin and rates five characteristics: ease of application, moistness, smoothness, greasiness and tackiness. Numerical values are given as follows: poor = 0, average or "not sure" = 1, and good = 2. This is done by an experienced panel of 10 persons and ratings for each emollient are the mean for the 10 subjects. With this system, the highest possible rating is 10; the average emollient has a rating of 5; and the worst score is zero. Most of the emollients of the present invention have ratings well above 5.
Specific examples of acetals of fatty aldehydes are listed following under the name of the polyol. The aldehyde in each case was the mixed C13 and C15 aldehyde used in Example 1.

[1] = 0-10 scale, five characteristics (ease of application, moistness, smoothness, greasiness, tackiness) each rated 0-2, mean of 10 subjects, 7.0 parts emollient in lotion aged 48 hours, rubbed into inner arm

| SMILES | Emollient Rating [1] | Emollient Rating (in vivo) |
| --- | --- | --- |
| CC(O)CO (centres unmarked) [1,2-Propylene glycol] | 8.1 |  |
| OCCCO [1,3-Propanediol] | 6.3 |  |
| OCCO [Ethylene glycol] |  | 8.6 |
| OCC(O)CO [Glycerol] | 5.8 |  |
| OCC(CO)(CO)CO [Pentaerythritol] | 6.3 |  |
